Data from PMC9403976, “Elucidating the path to Plasmodium prolyl-tRNA synthetase inhibitors that overcome halofuginone resistance” (Nature Communications, 2022).
Where “and” joins values, the source holds several entries; their conditions need not be identical. Identical values can stand only once. Like-named read-outs stand apart in the source and are kept apart here.

How the values were obtained:
PfcProRS = biological target: T1, PfcProRS (Plasmodium falciparum, UniProt Q8I5R7); format: binding; details: single replicates
T1 construct: made in house; host or cells: E. coli SoluBL-21
T1 sequence (Q8I5R7 249-746): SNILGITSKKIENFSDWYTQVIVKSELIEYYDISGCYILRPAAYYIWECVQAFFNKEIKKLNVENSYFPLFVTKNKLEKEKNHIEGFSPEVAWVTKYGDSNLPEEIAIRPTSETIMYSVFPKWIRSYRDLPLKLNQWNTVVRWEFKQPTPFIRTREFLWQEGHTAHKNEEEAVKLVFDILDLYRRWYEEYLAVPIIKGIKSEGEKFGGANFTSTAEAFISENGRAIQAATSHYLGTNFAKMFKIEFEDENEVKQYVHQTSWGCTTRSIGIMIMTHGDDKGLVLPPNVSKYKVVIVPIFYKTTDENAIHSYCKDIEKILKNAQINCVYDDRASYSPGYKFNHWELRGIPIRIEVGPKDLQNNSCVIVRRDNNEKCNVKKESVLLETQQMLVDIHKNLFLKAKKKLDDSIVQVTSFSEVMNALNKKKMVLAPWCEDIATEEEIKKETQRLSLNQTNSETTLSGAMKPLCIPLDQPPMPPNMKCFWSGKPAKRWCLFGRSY

HsProRS = HsProRS (Homo sapiens, UniProt P07814); test: TR-FRET ligand displacement assay with tracer MAT379 (CoraFluor-1-Halo and anti-His6 antibody formats); format: binding; set-up: made in house; host or cells: E. coli SoluBL-21; details: for TR-FRET dose-response, normalized signal (SI Fig 11): individual replicates
HsProRS, sequence (P07814 996-1512): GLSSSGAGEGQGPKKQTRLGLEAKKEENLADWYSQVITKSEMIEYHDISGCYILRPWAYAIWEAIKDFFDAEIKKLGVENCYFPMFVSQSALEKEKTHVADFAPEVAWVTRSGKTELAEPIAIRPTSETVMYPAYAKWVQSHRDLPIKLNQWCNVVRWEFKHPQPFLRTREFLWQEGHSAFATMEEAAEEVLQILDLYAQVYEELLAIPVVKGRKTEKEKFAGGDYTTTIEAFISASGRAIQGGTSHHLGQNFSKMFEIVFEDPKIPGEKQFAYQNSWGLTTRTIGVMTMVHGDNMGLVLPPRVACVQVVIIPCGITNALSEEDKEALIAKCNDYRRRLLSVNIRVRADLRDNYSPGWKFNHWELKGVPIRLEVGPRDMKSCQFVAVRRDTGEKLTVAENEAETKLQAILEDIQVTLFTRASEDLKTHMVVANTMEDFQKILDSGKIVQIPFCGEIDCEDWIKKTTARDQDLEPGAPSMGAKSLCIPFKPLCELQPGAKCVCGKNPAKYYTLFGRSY

SMILES: NC1CCN(C(=O)Nc2nccnc2C(=O)NC2Cc3ccccc3C2)CC1 [compound 8]
- dose-response signal (normalized), SI Fig 8 (PfcProRS; Log[inhibitor] (M) -5.000): 9.61E-01 and 8.92E-01 and 8.44E-01
- dose-response signal (normalized), SI Fig 8 (PfcProRS; Log[inhibitor] (M) -5.301): 8.74E-01 and 9.88E-01 and 9.73E-01
- dose-response signal (normalized), SI Fig 8 (PfcProRS; Log[inhibitor] (M) -5.601): 9.98E-01 and 1.02E+00 and 1.04E+00
- dose-response signal (normalized), SI Fig 8 (PfcProRS; Log[inhibitor] (M) -5.904): 1.08E+00 and 1.04E+00 (2×)
- dose-response signal (normalized), SI Fig 8 (PfcProRS; Log[inhibitor] (M) -6.208): 1.22E+00 and 1.03E+00 and 1.05E+00
- dose-response signal (normalized), SI Fig 8 (PfcProRS; Log[inhibitor] (M) -6.509): 1.14E+00 and 1.03E+00 and 1.04E+00
- dose-response signal (normalized), SI Fig 8 (PfcProRS; Log[inhibitor] (M) -6.796): 1.01E+00 and 1.02E+00 and 1.08E+00
- dose-response signal (normalized), SI Fig 8 (PfcProRS; Log[inhibitor] (M) -7.108): 9.50E-01 and 9.64E-01 and 1.00E+00
- dose-response signal (normalized), SI Fig 8 (PfcProRS; Log[inhibitor] (M) -7.409): 1.03E+00 and 1.01E+00 and 1.12E+00
- dose-response signal (normalized), SI Fig 8 (PfcProRS; Log[inhibitor] (M) -7.710): 1.12E+00 and 1.00E+00 and 9.44E-01
- dose-response signal (normalized), SI Fig 8 (PfcProRS; Log[inhibitor] (M) -8.000): 1.00E+00 and 9.85E-01 and 1.03E+00
- dose-response signal (normalized), SI Fig 8 (PfcProRS; Log[inhibitor] (M) -8.301): 1.00E+00 and 9.83E-01 and 1.01E+00
- dose-response signal (normalized), SI Fig 8 (PfcProRS; Log[inhibitor] (M) -8.602): 1.04E+00 (2×) and 1.03E+00
- dose-response signal (normalized), SI Fig 8 (PfcProRS; Log[inhibitor] (M) -9.000): 9.59E-01 and 1.02E+00 and 1.11E+00
- dose-response signal (normalized), SI Fig 8 (PfcProRS; Log[inhibitor] (M) -9.301): 9.77E-01 and 1.08E+00 and 1.13E+00
- IC50 (HsProRS): > 10 µM
- HsProRS % signal at 10 μM, + 100 μM proline (HsProRS; + 100 μM proline, 10 μM): 64.1%
- normalized TR-FRET ligand displacement signal, dose-response replicates (SI Fig 6) (HsProRS; Log[inhibitor] (M) -5.000): 7.72E-01 and 8.67E-01 and 9.20E-01
- TR-FRET dose-response, normalized signal (SI Fig 11) (HsProRS; Log[inhibitor] (M) -5.000): 7.80E-01 and 8.21E-01 and 8.27E-01
- normalized TR-FRET ligand displacement signal, dose-response replicates (SI Fig 6) (HsProRS; Log[inhibitor] (M) -5.301): 9.51E-01 and 8.63E-01 and 8.95E-01
- TR-FRET dose-response, normalized signal (SI Fig 11) (HsProRS; Log[inhibitor] (M) -5.301): 9.22E-01 and 8.53E-01 and 9.03E-01
- normalized TR-FRET ligand displacement signal, dose-response replicates (SI Fig 6) (HsProRS; Log[inhibitor] (M) -5.601): 9.39E-01 and 9.19E-01 and 9.88E-01
- TR-FRET dose-response, normalized signal (SI Fig 11) (HsProRS; Log[inhibitor] (M) -5.601): 8.79E-01 and 9.90E-01 and 8.75E-01
- normalized TR-FRET ligand displacement signal, dose-response replicates (SI Fig 6) (HsProRS; Log[inhibitor] (M) -5.904): 9.40E-01 and 9.19E-01 and 1.05E+00
- TR-FRET dose-response, normalized signal (SI Fig 11) (HsProRS; Log[inhibitor] (M) -5.904): 9.88E-01 and 9.41E-01 and 9.72E-01
- normalized TR-FRET ligand displacement signal, dose-response replicates (SI Fig 6) (HsProRS; Log[inhibitor] (M) -6.208): 8.89E-01 and 1.04E+00 and 1.05E+00
- TR-FRET dose-response, normalized signal (SI Fig 11) (HsProRS; Log[inhibitor] (M) -6.208): 9.38E-01 (2×) and 9.73E-01
- normalized TR-FRET ligand displacement signal, dose-response replicates (SI Fig 6) (HsProRS; Log[inhibitor] (M) -6.509): 1.02E+00 and 9.90E-01 and 9.84E-01
- TR-FRET dose-response, normalized signal (SI Fig 11) (HsProRS; Log[inhibitor] (M) -6.509): 9.67E-01 and 9.58E-01 and 9.39E-01
- normalized TR-FRET ligand displacement signal, dose-response replicates (SI Fig 6) (HsProRS; Log[inhibitor] (M) -6.796): 1.02E+00 and 1.08E+00 and 1.11E+00
- TR-FRET dose-response, normalized signal (SI Fig 11) (HsProRS; Log[inhibitor] (M) -6.796): 9.44E-01 and 9.26E-01 and 9.45E-01
- normalized TR-FRET ligand displacement signal, dose-response replicates (SI Fig 6) (HsProRS; Log[inhibitor] (M) -7.108): 1.06E+00 and 1.03E+00 and 1.02E+00
- TR-FRET dose-response, normalized signal (SI Fig 11) (HsProRS; Log[inhibitor] (M) -7.108): 8.82E-01 and 8.87E-01 and 8.97E-01
- normalized TR-FRET ligand displacement signal, dose-response replicates (SI Fig 6) (HsProRS; Log[inhibitor] (M) -7.409): 1.03E+00 (2×) and 9.94E-01
- TR-FRET dose-response, normalized signal (SI Fig 11) (HsProRS; Log[inhibitor] (M) -7.409): 8.83E-01 and 9.01E-01 and 8.97E-01
- normalized TR-FRET ligand displacement signal, dose-response replicates (SI Fig 6) (HsProRS; Log[inhibitor] (M) -7.710): 9.60E-01 and 1.05E+00 and 1.02E+00
- TR-FRET dose-response, normalized signal (SI Fig 11) (HsProRS; Log[inhibitor] (M) -7.710): 9.46E-01 and 8.63E-01 and 9.47E-01
- normalized TR-FRET ligand displacement signal, dose-response replicates (SI Fig 6) (HsProRS; Log[inhibitor] (M) -8.000): 8.80E-01 and 1.08E+00 and 9.66E-01
- TR-FRET dose-response, normalized signal (SI Fig 11) (HsProRS; Log[inhibitor] (M) -8.000): 9.68E-01 and 9.54E-01 and 9.46E-01
- normalized TR-FRET ligand displacement signal, dose-response replicates (SI Fig 6) (HsProRS; Log[inhibitor] (M) -8.301): 9.78E-01 and 9.63E-01 and 8.97E-01
- TR-FRET dose-response, normalized signal (SI Fig 11) (HsProRS; Log[inhibitor] (M) -8.301): 9.20E-01 and 9.17E-01 and 9.26E-01
- normalized TR-FRET ligand displacement signal, dose-response replicates (SI Fig 6) (HsProRS; Log[inhibitor] (M) -8.602): 9.99E-01 and 9.46E-01 and 8.78E-01
- TR-FRET dose-response, normalized signal (SI Fig 11) (HsProRS; Log[inhibitor] (M) -8.602): 9.38E-01 and 9.59E-01 and 9.18E-01
- normalized TR-FRET ligand displacement signal, dose-response replicates (SI Fig 6) (HsProRS; Log[inhibitor] (M) -9.000): 8.55E-01 and 9.99E-01 and 1.05E+00
- TR-FRET dose-response, normalized signal (SI Fig 11) (HsProRS; Log[inhibitor] (M) -9.000): 9.56E-01 and 9.64E-01 and 9.58E-01
- normalized TR-FRET ligand displacement signal, dose-response replicates (SI Fig 6) (HsProRS; Log[inhibitor] (M) -9.301): 1.04E+00 and 8.74E-01 and 1.01E+00
- TR-FRET dose-response, normalized signal (SI Fig 11) (HsProRS; Log[inhibitor] (M) -9.301): 9.54E-01 and 1.00E+00 (2×)
- HsProRS % signal at 10 μM (HsProRS; no added proline/ATP (-), 10 μM): 81.0%
- IC50 (HsProRS; read-out: HsProRS IC50 + 100 μM proline, + 100 μM proline): > 10 µM
